Consider six compounds from patent US20040224922A1, “Use of charged dextran as a mucoactive agent and methods and pharmaceutical compositions relating thereto” (priority 1999, published 2004).

Data set [1] is described as follows: Viscoelasticity of cystic fibrosis sputum in vitro by magnetic rheometry. Also on record: species or system human. The following applies: final concentration 8 mg/ml in CF sputum. The source says: FIG. 5 is a bar graph illustrating the effect of heparin and dextran sulfate on […] of sputum from 7 cystic fibrosis human patients as determined by magnetic rheometry, expressed as the average log G* over 1-100 rad/s after treatment with saline, heparin (MW 6000), Dextran Sulfate (MW 5000, about 17% sulphur by weight), heparin (dimer, highly (fully) sulfated, H-9267: C12H13NO19S3Na4), or heparin (dimer, low sulfate, partially de-sulfated H-9142, C12H18NO13SNa) to a final concentration of about 8 mg/ml (or […]) of sputum. […] The effect was similar to heparin, M.W. 6000.
Mucus Viscoelasticity Measurements: The magnetic microrheometer technique was used to measure the viscosity and elasticity of the dog mucus samples [21]. A […] steel ball was positioned in a 5-10 mL sample of mucus, and the motion of this sphere under the influence of an oscillating electromagnetic field gradient was used to determine the rheological properties of the mucus. The image of the steel ball was projected via a microscope onto a pair of photocells, whose output was amplified and transmitted to an oscilloscope. […]
(§1) The parameters of mucus viscoelasticity determined were the rigidity index or mechanical impedance, i.e. G*, reported here on a log scale, expressing the average vector sum of “viscosity+elasticity” over the frequency range 1-100 rad/s, and tan d, the mechanical loss tangent, expressing the ratio of viscous to elastic deformation. These viscoelastic parameters can be used to predict mucus clearability by ciliary and cough mechanisms, based on the measured Theological properties and observations of clearance from model studies.
(a) In vitro Sputum from 7 cystic fibrosis human patients were measured with regards to viscoelasticity after treatment with saline, heparin (MW˜6000), dextran sulfate (MW˜5000), heparin (dimer, highly sulfated), or heparin (dimer, de-sulfated) in accordance with the protocols for measuring viscoelasticity described in Example 1. […]

Data set [2] relates to healthy mongrel dogs. As to the kind of experiment: Tracheal mucus viscoelasticity by magnetic microrheometry after aerosol. Format: in vivo, dog. As to the method: (§2) Seven healthy mongrel dogs (6 male/1 female), weight 21-28 kg, with no respiratory tract bacterial infections, were studied. The dogs were anesthetized with sodium pentobarbital (ca 30 mg/kg i.v., supplemented as required) and intubated with a cuffed endotracheal tube. They were administered Ringer aerosol first, followed by 6.5 mg/ml dextran sulfate, 20 mg/ml dextran sulfate, and 65 mg/ml dextran sulfate by aerosol. Each aerosolization was of 30 minutes duration, with a rest period of 30 minutes before the beginning of the next aerosol delivery. The aerosols were generated and delivered by a Pari LC STAR nebulizer using an air flow rate of 8 l/min, which results in an output of 0.58 ml/min and particles of […] mass median diameter. The nebulizer was loaded in each case with 10 ml of solution. The amount of solution remaining in the nebulizer after 30 minutes was recorded. A T-tube connection was provided to the endotracheal tube during aerosol delivery to ensure a minimal deadspace for ventilation and adequate delivery of the aerosol. The dogs breathed spontaneously throughout the experiment.
(§3) Tracheal mucus velocity (TMV) and tracheal potential difference (PD) was measured, and mucus samples were collected for each concentration of delivered drug. TMV was measured twice for each dose, i.e. during aerosolization, between 15 and 25 minutes from the start of aerosol delivery (designated as period-1), and 10-20 minutes after completion of aerosolization (designated as period-2). PD was measured during the period 5 to 10 minutes following each aerosol. Mucus was collected twice for each aerosol, once immediately after 30 minutes of aerosolization and a second time after an additional 30 minutes of spontaneous breathing.
All samples of dog mucus collected from endotracheal tubes were placed in 1.5 ml Eppendorf tubes for measurement of viscoelasticity by magnetic rheometry. After initial rheological testing, the mucus samples were preserved at −80° C. for subsequent analysis of collection rate and solids content.
Mucus Viscoelasticity Measurements: The magnetic microrheometer technique was used to measure the viscosity and elasticity of the dog mucus samples [21]. A […] steel ball was positioned in a 5-10 mL sample of mucus, and the motion of this sphere under the influence of an oscillating electromagnetic field gradient was used to determine the rheological properties of the mucus. The image of the steel ball was projected via a microscope onto a pair of photocells, whose output was amplified and transmitted to an oscilloscope. By plotting the displacement of the ball against the magnetic driving force, the viscoelastic properties of the mucus were ascertained.
as §1
(b) In vivo Seven healthy dogs were anesthetized, intubated and treated via aerosol with heparin sodium (MW 5000-6000) or dextran sulfate (MW 5000) and mucus viscoelasticity, transepithelial potential difference (PD) and tracheal mucus velocity (TMV) were determined, in accordance with the protocols described in Example 1 above. Non-lactated Ringer's solution was used as control. […] These changes were accompanied by a nonsignificant, upward trend in TMV, to approximately 130% of control. However, changes might be even more pronounced in animals with initially rigid mucus.

Data set [3] has as its system healthy mongrel dogs. As to the kind of experiment: Mucus collection weight (MCW) by endotracheal tube method. Type of data set: in vivo, dog. Here is the method:
as §2, §3
Mucus Collection Weight (MCW, mg/30 min): Tracheal mucus was collected by the endotracheal tube (ETT) method, which involves the removal of mucus adherent to the ETT after extubation. Mucus collections were performed twice after each aerosol, once by immediately removing the ETT following aerosol inhalation, and the second 30 minute after inhalation, after re-installing a clean ETT The mucus samples, which had been frozen, were thawed and weighed by microbalance, to determine MCW, an index of flux, and indirectly of the rate of secretion.

Data set [4] has as its system healthy mongrel dogs. Put plainly: Solids content (% SC) of collected airway secretion. Format: in vivo, dog. Here is the method: as §2
(§4) Tracheal mucus velocity (TMV) and tracheal potential difference (PD) was measured, and mucus samples were collected for each concentration of delivered drug. TMV was measured twice for each dose, i.e. during aerosolization, between 15 and 25 minutes from the start of aerosol delivery (designated as period-1), and 10-20 minutes after completion of aerosolization (designated as period-2). PD was measured during the period 5 to 10 minutes following each aerosol. […]
Solids content (wet:dry weight ratio): A drying apparatus and microbalance were used to calculate the dry weight and wet weight of the collected secretion, from which the percent solids content (% SC) was calculated. […] These dried samples were then reweighed, and % SC was calculated from ratio of dry to wet weight.

The test system of data set [5] is healthy mongrel dogs. Put plainly: Tolerability / toxic effects of aerosol inhalation in dogs. Type of data set: in vivo, dog.
Method: Seven healthy mongrel dogs (6 male/1 female), weight 21-28 kg, with no respiratory tract bacterial infections, were studied. The dogs were anesthetized with sodium pentobarbital (ca 30 mg/kg i.v., supplemented as required) and intubated with a cuffed endotracheal tube. They were administered Ringer aerosol first, followed by 6.5 mg/ml dextran sulfate, 20 mg/ml dextran sulfate, and 65 mg/ml dextran sulfate by aerosol. Each aerosolization was of 30 minutes duration, with a rest period of 30 minutes before the beginning of the next aerosol delivery. The aerosols were generated and delivered by a Pari LC STAR nebulizer using an air flow rate of 8 l/min, which results in an output of 0.58 ml/min and particles of 2.0 mm mass median diameter. The nebulizer was loaded in each case with 10 ml of solution. The amount of solution remaining in the nebulizer after 30 minutes was recorded. A T-tube connection was provided to the endotracheal tube during aerosol delivery to ensure a minimal deadspace for ventilation and adequate delivery of the aerosol. The dogs breathed spontaneously throughout the experiment.
Data set [6] concerns healthy mongrel dogs. Put plainly: Tracheal transepithelial potential difference (PD) by agar bridge technique after aerosol. Format: in vivo, dog. As to the method: as §2, §4
Transepithelial Potential Difference (PD, -mV); PD was measured by using two flexible microelectrodes (agar bridges of PE 160 size) saturated with KCl connected to calomel half cells, one for reference and the other for testing. […] The PD value was recorded when a steady state, value was achieved and remained stable for a least 30 seconds. […]

In data set [7] the test system is healthy mongrel dogs. As to the kind of experiment: Tracheal mucociliary velocity (TMV) by charcoal particle displacement. Type of data set: in vivo, dog. Here is the method:
as §2, with “The dogs breathed spontaneously throughout the experiment.” left out
as §4
Tracheal Mucociliary Velocity (TMV, mm/min): TMV was determined by observing the rate of charcoal marker particle transport in the lower trachea. Under bronchoscopic visualization, ca, 5 mL of a charcoal suspension (Charac-50 diluted in Ringer's 1:10) was deposited on a lateral surface of the lower trachea 1-2 cm above the carina, and the rate of cephalad progression of the leading edge of the charcoal spot was monitored over the course of 10 minutes by gradually withdrawing the bronchoscope and recording its position relative to the endotracheal tube. […]

Data set [8] deals with human subjects. The following applies: oral, human subjects [34]; cited from earlier work.

With `N[C@H]1C(O)O[C@H](CO)[C@@H](O[C@@H]2OC(C(=O)O)=C[C@H](O)[C@H]2OS(=O)(=O)O)[C@@H]1O` (stereo partly shown) [de-sulfated heparin dimer], the “viscoelasticity (average log G* over 1-100 rad/s) compared to saline control” value in data set [1] is on record as “no significant improvement”.
As for `O=C(O)C1=C[C@H](O)[C@@H](OS(=O)(=O)O)[C@H](O[C@H]2[C@H](O)[C@@H](NS(=O)(=O)O)C(O)O[C@@H]2COS(=O)(=O)O)O1` (stereo partly shown) [highly sulfated heparin dimer], in data set [1], the “viscoelasticity (average log G* over 1-100 rad/s) compared to saline control” value is recorded as “significant decrease in viscoelasticity”.
As to Dextran sulfate, sodium salt [DexSO4], in data set [2] (aerosol 6.5-65 mg/ml), the “mucus recoil parameter, tan d” value is “no significant changes”. Besides, in data set [2] (aerosol at 6.5 and 65 mg/ml), the “average log G* compared with respective Ringer control” value was “significant decrease”. Also, in data set [2] (during 65 mg/ml aerosol), the “decrease in G* expressed as a factor” value is 2.61. In addition, the “mean decrease in average log G* (1-100 rad/s)” value in data set [2] (during 65 mg/ml aerosol, vs Ringer, p=0.021) amounted to 0.42 log units. Besides, the “effective concentration range relative to neutral dextran (reduced viscoelastic modulus, predicted clearance)” value in data set [2] (in vivo, healthy dog mucus) is given as “half-log lower concentration range”. In addition, the “mucus collection weight (MCW, mg/30 min)” value in data set [3] (6.5 mg/ml-1 (collected immediately after aerosol), wet weight) was found to be 4.35 ± 0.67 mg; in data set [3] (20 mg/ml-1, wet weight), 4.47 ± 0.59 mg; in data set [3] (65 mg/ml-1, wet weight), 5.64 ± 1.14 mg. Besides, the “change in mucus collection weight with increasing concentration” value in data set [3] (6.5-65 mg/ml aerosol) is “no change”. Further, the “solids content (% SC) of collected fluid” value was determined as 9.27±1.02% in data set [4] (65 mg/ml-1 (Ringer-1: 6.16±0.20%), p=0.042) and 10.78% in data set [4] (65 mg/ml-2 (Ringer-2: 6.87±0.92%), p=0.009). Also, the “effect on mucus % solids content” value in data set [4] (increasing concentrations 6.5, 20, 65 mg/ml) is “significant increase”. In addition, the bronchial mucosal appearance entry in data set [5] (aerosol 6.5, 20, 65 mg/ml) is reported as “remained normal”. In addition, the “cough or other side effects during inhalation” value in data set [5] (aerosol 6.5, 20, 65 mg/ml, 30 min each, all seven dogs) was “without significant cough or other side effects”. The toxic effects entry in data set [5] (present study, aerosol in dogs) was “no toxic effects”. For the same compound, in data set [6] (65 mg/ml aerosol, vs Ringer control), the “mean increase in PD (maximal change)” value came to 9.86 mV. For the same compound, the “PD compared with Ringer control” value in data set [6] (after 30-minute aerosol at 6.5, 20 and 65 mg/ml, 7 dogs) is given as “increased significantly”. In data set [7] (6.5 mg/ml aerosol (first dose), non-significant, p=0.066), the “TMV, % of baseline” value is recorded as 128 % of baseline. In data set [7] (aerosol 6.5-65 mg/ml, during and after aerosolization), the “change in mucociliary velocity (TMV)” value is listed as “no significant change”.
As to “dextran sulfate [dextran sulfate (m.w. 7000)]”, in data set [8], the absorbability entry is on record as “poor absorbablity”, the anticoagulant effect result is “little anticoagulant effect” and the other safety concerns result is listed as “no other apparent safety concerns”.
heparin [heparin, MW 6000]: the “viscoelasticity (average log G* over 1-100 rad/s) compared to saline control” value in data set [1] is listed as “similar”.
On to heparin sodium [reference compound], for which the “mucus viscoelasticity (G*), % of control” value in data set [2] (6.5 mg/ml aerosol, significantly decreased) is recorded as 36 % of control. Moreover, the “PD, % of control” value in data set [6] (6.5 mg/ml aerosol, significant decrease, Ringer control) is on record as 55.1 % of control. Besides, in data set [7] (6.5 mg/ml aerosol, nonsignificant upward trend), the “TMV, % of control” value is listed as “approximately 130 % of control”.
